{"source": "patent US9096607B2", "about": "“Tumor necrosis factor inhibitors” (THE TRUSTEES OF THE UNIVERSITY OF PENNSYLVANIA, priority 2005, dated 2015)", "key": {"[1]": {"tested_on": "EGF-signaling in NE91 cells", "experiment": "Effect on EGF-signaling in NE91 cells (western blot)", "format": "cell-based", "conditions": "2 hr treatment, EGF 100 ng/mL", "protocol": "To verify the effects of I-9 were specific to TNF-α signaling, the effect of I-9 on EGF-signaling was tested in NE91 cells (American Type Culture Collection, Manassas, Va.). NE91 cells were cultured in RPMI medium containing 10% FBS in 6-well plate at the density of 1×10^6/well for 12 hr, followed by 2 hr treatment with or without I-9. Cells were then stimulated with EGF at 100 ng/mL for the indicated time. Cells were then lysed and analyzed by western blotting in the same manner as described above for analysis of TNF-α signaling in L929 cells."}, "[2]": {"tested_on": "TNF-α signaling in L929 cells", "experiment": "Inhibition of TNF-α signaling in L929 cells (western blot)", "format": "cell-based, murine", "conditions": "2 h pretreatment, TNF-α 20 ng/mL", "protocol": "The effect of compound I-9 on TNF-α signaling was examined in L929 cells (American Type Culture Collection, Manassas, Va.). Cells were cultured in RPMI (Invitrogen) containing 5% fetal bovine serum. Cells (1×10^6/well) were cultured in 6-well plates for 12 h, treated with or without small molecule for 2 h, and then stimulated with TNF-α at 20 ng/mL for the indicated periods. Cells were then washed with ice-cold phosphate-buffered saline and lysed with lysis buffer. Cell lysates ([…]) were separated by 12% SDS-PAGE, electroblotted onto nitrocellulose membrane (Osmonics, Westborough, Mass.), and probed with anti-phospho-IκBα, anti-IκBα, anti-phospho-p38, anti-p38, and anti-β-actin antibodies (Cell Signaling Technology, Inc., Beverly, Mass.) and developed using an enhanced chemiluminescence (ECL) system (Amersham Biosciences, Piscataway, N.J.)."}, "[3]": {"tested_on": "TNF-α signaling in THP1 cells", "experiment": "Inhibition of TNF-α signaling in THP1 cells (western blot)", "format": "cell-based, Human", "conditions": "2 hr pretreatment", "protocol": "THP1 cells (Human acute monocytic leukemia cell line, American Type Culture Collection, Manassas, Va.) were cultured in RPMI with the supplement of 50 mM HEPES, 1 mM Na Pyruvate, 50 μM of 2-ME, 2.5 mg/mL of glucose, […] of gentamicin and 10% of FBS. Cells were cultured in 12-well plate at a density of 6×10^5/well with supplement of 100 ng/mL PMA. Cells were plated 72 hrs to differentiate. Cells were then pretreated with or without small molecule for 2 hr, followed by treatment with TNF-α at 20 ng/mL at the indicated periods. Cells were then lysed and analyzed by western blotting in the same manner as described above for L929 cells."}, "[4]": {"tested_on": "collagen induced arthritis", "experiment": "Collagen induced arthritis in mice", "format": "in vivo, mouse", "conditions": "DBA/1 mice", "protocol": "Activity of compound I-9 was studied in a mouse collagen induced arthritis system, which is a model for human rheumatoid arthritis. Six to eight weeks old male DBA/1 mice were immunized by multiple intradermal injections of 100 μg chicken type II collagen (Sigma Chemical Co., St. Louis, Mo.) in 100 μl of 0.1 M acetic acid emulsified in an equal volume of complete Freund's adjuvant and were then challenged with the same antigen preparation i.p. on the 21st day. Animals were injected daily with the compound I-9 at different dosages (2-4 mg/kg/day) beginning on day 21 and animals were examined physically every other day in a blinded manner. In this model, disease typically develops 7-10 days after the second immunization, and the severity of disease can be determined by physical examination, joint histochemistry, or both techniques. […] Male DBA/1 mice (6-8-wk-old) were purchased from Jackson Laboratory (Bar Harbor, Me.) and housed in University of Pennsylvania Animal Care Facilities. Animals were maintained in accordance with guidelines of Institutional Animal Care and Use Committee (IACUC) of the University of Pennsylvania. For CIA induction, mice were immunized by multiple intradermal injections of 100 μg chicken type II collagen (Sigma Chemical Co., St. Louis, Mo.) in 100 μL of 0.1M acetic acid emulsified in an equal volume of complete Freund's adjuvant. Mice were challenged with the same antigen preparation i.p. at the 21st day. Mice were injected daily with the test compound at different dosage (2 and 4 mg/kg of body weight) from day 21. Disease develops 7-10 day after the second immunization. Mice were examined physically every other day in a blind manner. Their paws were scored individually as follows: 0=normal; 1=Erythema and mild swelling confined to the ankle joint or toes; 2=Erythema and mild swelling extending from the ankle to the midfoot or ankle joint; 3=Erythema and moderate swelling extending from the ankle to the metatarsal joints; and 4=Erythema and severe swelling encompass the ankle, foot, and digits. The maximum disease score per foot is 4, and the maximum disease score per mouse is 16. For histological examination of the joint, mice were killed at different time points, and their paws were collected and fixed in 10% formalin. The paws were then decalcified in hydrochloric acid, embedded in paraffin, sectioned, and stained with hematoxylin and eosin (H&E)."}, "TNF-R1": {"biological_target": "T1, TNF-R1 (Homo sapiens, UniProt P19438)", "T1 construct": "The ectodomain of wild type TNF receptor 1 was obtained by PCR from pKP13; made in house", "T1 sequence (P19438 30-211 limits assumed)": "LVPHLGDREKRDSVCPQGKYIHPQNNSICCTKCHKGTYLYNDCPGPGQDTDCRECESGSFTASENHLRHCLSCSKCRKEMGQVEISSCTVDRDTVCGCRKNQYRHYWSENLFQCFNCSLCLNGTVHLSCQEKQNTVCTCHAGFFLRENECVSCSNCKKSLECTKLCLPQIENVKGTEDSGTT", "experiment": "Acrylamide quenching of intrinsic tryptophan fluorescence of TNF-R1 (Stern-Volmer)", "format": "binding", "conditions": "test compound 20 μM, 5 μM TNF-R1; TNF-R1 alone 14.4±0.2 M^−1", "protocol": "The residue W107 in the WP9 loop fluoresces around 340 nm. In this set of experiments, the resultant concentration of quencher ranged up to 0.25 M, quenching 77.4% of the total intrinsic fluorescence of TNF-R1. […] Thus binding of 1-9 to the receptor changed the disposition of tryptophan-107.\nQuenching experiments with acrylamide were performed in stirred cells, at 25° C., titrating from a stock of 1 M acrylamide by adding 2.5 μl of acrylamide each time. Recombinant TNF-R1 were at the concentration of 5 μM in 1% DMSO. Tryptophan emission, monitored at 340 nm, was observed using 295 nm excitation. Intensity data following quencher additions were averaged over a 10-sec collection and were corrected for background emission (paired control lacking of protein). Intensities, F, at given quencher concentration, [Q], were analyzed using the Stern-Volmer equation, F0/F=1+KS.V·[Q] • Where F0 is the emission intensity of the protein in the absence of quencher, and KS.V is the Stern-Volmer constant for quenching, given by the slope when data are plotted as Fo/F versus [Q].\nFor synthesized small molecules, a test compound at 20 μM was pre-incubated with 5 μM TNF-R1 in 1% DMSO for 30 min, and titrated with 1 M acrylamide the same way as TNF-R1 alone. The F0/F was analyzed using the Stern-Volmer equation, and two slopes from TNF receptor and from TNF receptor with the test compound were compared."}}, "data": [{"smiles": "CC(=O)Oc1ccc(C(C)(c2ccc(OC(C)=O)cc2)c2ccc(OC(C)=O)cc2)cc1", "note": "[Compound I-9, 1,1,1-Tris-(4-acetoxyphenyl)ethane]", "values": [{"measurement": "changes in EGF-induced signaling", "setting": "[1]", "result": "failed to induce changes"}, {"measurement": "production of phospho-IκBα following TNF-α treatment", "setting": "[2]", "result": "reduced"}, {"measurement": "production of phospho-p38 following TNF-α treatment", "setting": "[2]", "result": "reduced"}, {"measurement": "TNF-α mediated I-kBα phosphorylation", "setting": "[3]", "result": "inhibited"}, {"measurement": "TNF-α mediated p38 phosphorylation", "setting": "[3]", "result": "inhibited"}, {"measurement": "clinical symptoms of arthritis", "setting": "[4]; 2-4 mg/kg/day daily from day 21, vs untreated or control groups", "result": "dose dependent decrease"}, {"measurement": "cartilage destruction", "setting": "[4]; treated", "result": "prevented"}, {"measurement": "infiltration, histological analysis of ankle joints", "setting": "[4]; treated", "result": "markedly reduced"}, {"measurement": "synovial tissue, histological analysis of ankle joints", "setting": "[4]; treated", "result": "less synovial tissue"}, {"measurement": "Stern-Volmer constant for TNF-R1 quenching by acrylamide in the presence of the test compound", "setting": "TNF-R1", "result": "11.6 ± 0.2", "unit": "M⁻¹"}]}]}
